# Test results reported in patent US10258617B2, “Dosing regimens for fast onset of antidepressant effect” (H. Lundbeck A/S, priority 2016, dated 2019).
# Read-outs that look alike come from different tables or passages of the source.
# Experiments:
# [1] = target: T1, serotonin transporter (SERT) (Macaca mulatta, UniProt Q9MYX0); assay: Example 1 PET monkey study: SERT occupancy with [11C]MADAM; type: in vivo, rhesus monkeys; details: rhesus monkey, iv, monkey brain
# T1 construct: serotonin transporter occupancy in the monkey brain using the SERT radio-ligand; from tissue; host or cells: brain of living rhesus monkeys (PET)
# T1 sequence (Q9MYX0 whole entry): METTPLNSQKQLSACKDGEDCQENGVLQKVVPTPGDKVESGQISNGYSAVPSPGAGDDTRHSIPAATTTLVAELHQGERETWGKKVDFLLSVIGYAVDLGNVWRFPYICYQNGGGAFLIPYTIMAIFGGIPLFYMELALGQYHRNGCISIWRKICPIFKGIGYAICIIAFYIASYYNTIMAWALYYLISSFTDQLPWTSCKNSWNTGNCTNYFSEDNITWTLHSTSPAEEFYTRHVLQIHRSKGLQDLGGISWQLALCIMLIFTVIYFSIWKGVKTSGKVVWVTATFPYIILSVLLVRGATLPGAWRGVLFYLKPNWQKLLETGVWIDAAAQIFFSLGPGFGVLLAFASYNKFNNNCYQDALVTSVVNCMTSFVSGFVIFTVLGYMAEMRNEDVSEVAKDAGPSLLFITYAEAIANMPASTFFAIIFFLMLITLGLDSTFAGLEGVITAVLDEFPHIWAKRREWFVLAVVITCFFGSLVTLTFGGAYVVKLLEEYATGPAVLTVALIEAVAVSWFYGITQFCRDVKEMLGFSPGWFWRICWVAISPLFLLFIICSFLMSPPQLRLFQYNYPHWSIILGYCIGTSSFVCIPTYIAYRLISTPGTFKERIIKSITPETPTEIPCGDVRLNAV
# Source text: (§1) Positron Emission Tomography (PET) was used to assess changes in the endogenous serotonin concentration in living rhesus monkeys. The objective of the present study was two-fold. […] The chemical name for [^11C]MADAM is [^11C] N,N-dimethyl-2-(2-amino-4-methylphenylthio)benzylamine.
# (§2) FIG. 1 illustrates the study design used for assessment of serotonin releasing capacities. A similar study design was applied for assessment of SERT occupancy.
# depression = details: FDA label of July 2014; oral treatment; cited from earlier work
# [2] = cited from earlier work
# 5-HT1B receptor = target: T2, 5-HT1B receptor (Macaca mulatta, UniProt F6SFA9); assay: Example 1 PET monkey study: change in [11C]AZ10419369-5-HT1B receptor binding potential (BPND); type: in vivo, rhesus monkeys; details: rhesus monkey, iv, mean±standard error, n=3, read-out: ΔBPND (% of baseline); for change in vivo at 0.3 mg/kg: Vortioxetine 0.3 mg/kg IV; for change in vivo at 1 mg/kg: Vortioxetine 1.0 mg/kg IV
# T2 construct: assess changes in the endogenous serotonin concentration in living rhesus monkeys; from tissue; host or cells: brain of living rhesus monkeys (PET)
# T2 sequence (F6SFA9 1-390): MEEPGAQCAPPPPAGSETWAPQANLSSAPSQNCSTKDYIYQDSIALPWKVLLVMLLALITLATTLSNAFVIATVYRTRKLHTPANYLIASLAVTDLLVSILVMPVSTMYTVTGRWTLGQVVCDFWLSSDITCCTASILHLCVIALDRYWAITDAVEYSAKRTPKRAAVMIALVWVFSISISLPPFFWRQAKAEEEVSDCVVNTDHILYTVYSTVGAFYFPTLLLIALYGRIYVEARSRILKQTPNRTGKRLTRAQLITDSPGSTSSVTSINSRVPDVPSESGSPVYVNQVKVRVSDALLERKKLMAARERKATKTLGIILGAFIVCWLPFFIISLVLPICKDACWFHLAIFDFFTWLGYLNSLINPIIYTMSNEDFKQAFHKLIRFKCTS
# Source text: as §1, §2
structure (smiles),measurement,setting,value
"Cc1ccc(Sc2ccccc2N2CCNCC2)c(C)c1 [Vortioxetine, 1-[2-(2,4-dimethyl-phenylsulfanyl)-phenyl]piperazine]",receptor occupancy at 0.3 mg/kg,[1]; vortioxetine 0.3 mg/kg intravenously,~50%
same,receptor occupancy at 1 mg/kg,[1]; vortioxetine 1.0 mg/kg intravenously,~80%
same,effect of vortioxetine is observed starting at week,depression,2 week
same,full antidepressant effect not seen until week,depression,≥ 4 week
same,steady-state plasma level (median AUC0-24),[2]; once daily oral 5 mg,161 ng·h/mL
same,steady-state plasma level (median AUC0-24),[2]; once daily oral 10 mg,323 ng·h/mL
same,steady-state plasma level (median AUC0-24),[2]; once daily oral 15 mg,484 ng·h/mL
same,steady-state plasma level (median AUC0-24),[2]; once daily oral 20 mg,645 ng·h/mL
same,time until steady-state plasma concentration is achieved,[2]; once daily oral administration,approximately 8 days
same,change in vivo at 0.3 mg/kg,5-HT1B receptor; Amygdala,-12.4 ± 10.5%
same,change in vivo at 1 mg/kg,5-HT1B receptor; Amygdala,-39.5 ± 11.5%
same,change in vivo at 0.3 mg/kg,5-HT1B receptor; Caudate nucleus,-23.2 ± 7.4%
same,change in vivo at 1 mg/kg,5-HT1B receptor; Caudate nucleus,-47 ± 8%
same,change in vivo at 0.3 mg/kg,5-HT1B receptor; Dorsal raphe nucleus,-28.3 ± 13.6%
same,change in vivo at 1 mg/kg,5-HT1B receptor; Dorsal raphe nucleus,-55 ± 3.3%
same,change in vivo at 0.3 mg/kg,5-HT1B receptor; Frontal gyrus,-8.2 ± 8.2%
same,change in vivo at 1 mg/kg,5-HT1B receptor; Frontal gyrus,-32.8 ± 9.5%
same,change in vivo at 0.3 mg/kg,5-HT1B receptor; Globus pallidus,-16.3 ± 5.1%
same,change in vivo at 1 mg/kg,5-HT1B receptor; Globus pallidus,-41.2 ± 6.4%
same,change in vivo at 0.3 mg/kg,5-HT1B receptor; Hippocampus,-9.4 ± 8.9%
same,change in vivo at 1 mg/kg,5-HT1B receptor; Hippocampus,-27 ± 6.8%
same,change in vivo at 0.3 mg/kg,5-HT1B receptor; Midbrain,-21.9 ± 3%
same,change in vivo at 1 mg/kg,5-HT1B receptor; Midbrain,-49.4 ± 7.1%
same,change in vivo at 0.3 mg/kg,5-HT1B receptor; Occipital gyrup,-24.3 ± 3.2%
same,change in vivo at 1 mg/kg,5-HT1B receptor; Occipital gyrup,-54.1 ± 4.2%
same,change in vivo at 0.3 mg/kg,5-HT1B receptor; Putamen,-15.6 ± 8.5%
same,change in vivo at 1 mg/kg,5-HT1B receptor; Putamen,-40.8 ± 7.9%
same,change in vivo at 0.3 mg/kg,5-HT1B receptor; Thalamus,-23.9 ± 5%
same,change in vivo at 1 mg/kg,5-HT1B receptor; Thalamus,-42.5 ± 7%
same,change in vivo at 0.3 mg/kg,5-HT1B receptor; Ventral striatum,-25.6 ± 5.4%
same,change in vivo at 1 mg/kg,5-HT1B receptor; Ventral striatum,-47.7 ± 8.5%
